test system: apyrase; assay: Apyrase inhibition assay (screen for apyrase inhibitors, phosphate release read at 630 nm); format: biochemical; details: inhibitor conc at 1 mM (10 μl added), 3 mM ATP, pH 6.5, room temperature 1 hr
Method: Apyrase inhibitors useful as enhancers of pesticidal activity are assessed using an in vitro assay. The method of Windsor, Bio Techniques 33:1024-1030 (November 2002) was used as follows
• 96 well plates were used for the assay: (Greiner bio-one: REF-655901-96 well, PS, F-bottom, Clear, Non-binding)
• Reaction Buffer: 60 mM Hepes; 3 mM MgCl2, 3 mM CaCl2) and 3 mM ATP (pH 6.5) • Development Buffer A: 2% aqueous ammonium molybdate • Development Buffer B: 11% ascorbic acid in 37.5% TCA in water • Stop buffer C: 2% trisodium citrate in 2% acetic acid solution in water
• Add 100 μl of reaction buffer to each well. • Add 10 μl of DMSO (control) or inhibitor/compound or compounds such as N1915 or orthovanadate to each well. (use inhibitor conc at 1 mM; orthovanadate at 2 mM and N1915 at 1 mM) • Add 10 μl of apyrase (concentration based on optimization—Dilute 1 U/μl enzyme to different concentrations such as 0.1 U, 0.05 U, 0.0025, 0.001 U, 0.0005 U—to find a good range) • Incubate plate at room temperature for 1 hr • Mix development buffer A and B in the ratio of 1:1.5 (just before use). • Add 50 μl of A: B mix in each well (incubate for 2 mins) • Add 50 μl of C in each well • Measure/Read Absorbance of plate @630 nm
Inhibitory data for the apyrase assay described above are provided for selected compounds in Table 3. D is inhibition of 0% to 10%, C is inhibition from 10% to 20%, B is inhibition from 20% to 30%, and A is inhibition above 30%. Blank entries signify compounds that were not tested.

| Inhibition | Structure (SMILES) |
| --- | --- |
| C (C is inhibition from 10% to 20%) | Cc1cccc(NS(=O)(=O)c2ccc(C(=O)NCC(F)(F)F)cc2)c1 [Compound A-66, 4-(N-(m-tolyl)sulfamoyl)-N-(2,2,2-trifluoroethyl)benzamide] |
| D (D is inhibition of 0% to 10%) | CCCc1ccc(S(=O)(=O)Nc2ccc(Cl)c(C(=O)O)c2)cc1 [Compound A-102, 2-chloro-5-((4-propylphenyl)sulfonamido) benzoic acid] |
| C (C is inhibition from 10% to 20%) | CCCc1ccc(S(=O)(=O)Nc2cc(Cl)ccc2Sc2nncn2C)cc1 [Compound A-67, N-(5-chloro-2-((4-methyl-4H-1,2,4-triazol-3-yl)thio)phenyl)-4-propylbenzenesulfonamide] |
| D (D is inhibition of 0% to 10%) | CCCc1ccc(S(=O)(=O)Nc2ccccc2C(F)(F)F)cc1 [Compound A-73, 4-propyl-N-(2-(trifluoromethyl)phenyl) benzenesulfonamide] |
| B (B is inhibition from 20% to 30%) | CCCc1ccc(S(=O)(=O)Nc2ccccc2Cc2ccccc2)cc1 [Compound A-91, N-(2-benzylphenyl)-4-propylbenzenesulfonamide] |
| D (D is inhibition of 0% to 10%) | CCCc1ccc(S(=O)(=O)Nc2cc(C)ccc2OC)cc1 [Compound A-88, N-(2-methoxy-5-methylphenyl)-4-propylbenzenesulfonamide] |
| D (D is inhibition of 0% to 10%) | CCCc1ccc(S(=O)(=O)Nc2ccc(Cn3cccn3)cc2)cc1 [Compound A-111, N-(4-((1H-pyrazol-1-yl)methyl)phenyl)-4-propylbenzenesulfonamide] |
| B (B is inhibition from 20% to 30%) | Cc1cccc(NS(=O)(=O)c2ccc(OCC(=O)O)cc2)c1 [Compound A-101, 2-(4-(N-(m-tolyl)sulfamoyl)phenoxy) acedtic acid] |
| D (D is inhibition of 0% to 10%) | O=S(=O)(c1ccc(-c2ccccc2)cc1)N1CCCSCC1 [Compound A-106, 4-([1,1′-biphenyl]-4-ylsulfonyl)-1,4-thiazepane] |
| C (C is inhibition from 10% to 20%) | CCCc1ccc(S(=O)(=O)Nc2cccc(CN3CCOC3=O)c2)cc1 [Compound A-110, N-(3-((2-oxooxazolidin-3-yl)methyl)phenyl)-4-propylbenzenesulfonamide] |
| D (D is inhibition of 0% to 10%) | CCCc1ccc(S(=O)(=O)Nc2ccc(C)c(S(N)(=O)=O)c2)cc1 [Compound A-104, N-(4-methyl-3-sulfamoylphenyl)-4-propylbenzenesulfonamide] |
| B (B is inhibition from 20% to 30%) | CCCCc1ccc(NS(=O)(=O)c2ccc(CCC)cc2)cc1 [Compound A-83, N-(4-butylphenyl)-4-propylbenzenesulfonamide] |
| D (D is inhibition of 0% to 10%) | CCCc1ccc(S(=O)(=O)Nc2ccc(C(=O)N(CC)CC)cc2)cc1 [Compound A-78, N,N-diethyl-4-((4-propylphenyl)sulfonamido) benzamide] |
| D (D is inhibition of 0% to 10%) | COc1ccccc1Oc1ccc(S(=O)(=O)Nc2cccc(C)c2)cc1 [Compound A-100, 4-(2-methoxyphenoxy)-N-(m-tolyl)benzenesulfonamide] |
| C (C is inhibition from 10% to 20%) | CCCc1ccc(S(=O)(=O)Nc2cccc([N+](=O)[O-])c2)cc1 [Compound A-70, N-(3-nitrophenyl)-4-propylbenzenesulfonamide] |
| C (C is inhibition from 10% to 20%) | CCCc1ccc(S(=O)(=O)Nc2cccc(S(N)(=O)=O)c2)cc1 [Compound A-72, 4-propyl-N-(3-sulfamoylphenyl)benzene-sulfonamide] |
| C (C is inhibition from 10% to 20%) | Cc1cccc(NS(=O)(=O)c2ccc(OC(F)(F)F)cc2)c1 [Compound A-63, N-(m-tolyl)-4-(trifluoromethoxy)benzenesul-fonamide] |
| D (D is inhibition of 0% to 10%) | CCCc1ccc(S(=O)(=O)Nc2cccc(C(N)=O)c2)cc1 [Compound A-84, 3-((4-propylphenyl)sulfonamido) benzamide] |
| D (D is inhibition of 0% to 10%) | O=S(=O)(c1ccc(-c2ccccc2)cc1)N1CCc2ccccc21 [Compound A-114] |
| C (C is inhibition from 10% to 20%) | CCCc1ccc(S(=O)(=O)Nc2c(C(C)C)cccc2C(C)C)cc1 [Compound A-76, N-(2,6-diisopropylphenyl)-4-propylbenzenesulfonamide] |
| D (D is inhibition of 0% to 10%) | CCCc1ccc(S(=O)(=O)Nc2ccc(C)c(S(=O)(=O)N(C)C)c2)cc1 [Compound A-89, N,N,2-trimethyl-5-((4-propylphenyl)sulfonamido) benzenesulfonamide] |
| D (D is inhibition of 0% to 10%) | Cc1cccc(NS(=O)(=O)c2ccc(C=CC(=O)O)cc2)c1 [Compound A-61, 3-(4-(N-(m-tolyl)sulfamoyl)phenyl)acrylic acid] |
| C (C is inhibition from 10% to 20%) | CCCc1ccc(S(=O)(=O)Nc2ccccc2-c2nncn2C)cc1 [Compound A-107, N-(2-(4-methyl-4H-1,2,4-triazol-3-yl)phenyl)-4-propylbenzenesulfonamide] |

Second part, the molecule before the results:

| Structure (SMILES) | Inhibition |
| --- | --- |
| CCCc1ccc(S(=O)(=O)Nc2ccc(C(=O)O)cc2)cc1 [Compound A-44, 4-((4-propylphenyl)sulfonamido) benzoic acid] | D (D is inhibition of 0% to 10%) |
| CCCc1ccc(S(=O)(=O)Nc2ccc(CC(=O)O)cc2)cc1 [Compound A-46, 2-(4-((4-propylphenyl)sulfonamido)phenyl)acetic acid] | A (A is inhibition above 30%) |
| CCCc1ccc(S(=O)(=O)Nc2cc(Cl)c(OC)cc2OC)cc1 [Compound A-49, N-(5-chloro-2,4-dimethoxyphenyl)-4-propylbenzenesulfonamide] | D (D is inhibition of 0% to 10%) |
| CCCc1ccc(S(=O)(=O)Nc2ccc(F)c(NC(C)=O)c2)cc1 [Compound A-35, N-(2-fluoro-5-((4-propylphenyl)sulfonamido)phenyl)acetamide] | D (D is inhibition of 0% to 10%) |
| Cn1ccnc(NS(=O)(=O)c2ccc(-c3ccccc3)cc2)c1=O [Compound A-23, N-(4-methyl-3-oxo-3,4-dihydropyrazin-2-yl)-[1,1′-biphenyl]-4-sulfonamide] | B (B is inhibition from 20% to 30%) |
| CCCc1ccc(S(=O)(=O)Nc2cccc(F)c2C(=O)O)cc1 [Compound A-42, 2-fluoro-6-((4-propylphenyl)sulfonamido) benzoic acid] | B (B is inhibition from 20% to 30%) |
| CCCc1ccc(S(=O)(=O)Nc2ccccc2Br)cc1 [Compound A-55, N-(2-bromophenyl)-4-propylbenzenesulfonamide] | D (D is inhibition of 0% to 10%) |
| CCCc1ccc(S(=O)(=O)Nc2c(F)cccc2CO)cc1 [Compound A-16, N-(2-fluoro-6-(hydroxymethyl)phenyl)-4-propylbenzenesulfonamide] | C (C is inhibition from 10% to 20%) |
| CCCc1ccc(S(=O)(=O)Nc2ccc(S(=O)(=O)N=C3CCCCCN3)cc2)cc1 [Compound A-52, N-(azepan-2-ylidene)-4-((4-propylphenyl)sulfonamido) benzenesulfonamide] | C (C is inhibition from 10% to 20%) |
| CCCc1ccc(S(=O)(=O)Nc2ccccc2CC)cc1 [Compound A-48, N-(2-ethylphenyl)-4-propylbenzenesulfonamide] | B (B is inhibition from 20% to 30%) |
| CCCc1ccc(S(=O)(=O)Nc2ccc3c(c2)OCCO3)cc1 [Compound A-54, N-(2,3-dihydrobenzo[b][1,4]dioxin-6-yl)-4-propylbenzenesulfonamide] | D (D is inhibition of 0% to 10%) |
| CCCc1ccc(S(=O)(=O)Nc2ccc(CC(C)C(=O)O)cc2)cc1 (stereo not shown) [Compound A-19, 2-methyl-3-(4-((4-propylphenyl)sulfonamido)phenyl)propanoic acid] | B (B is inhibition from 20% to 30%) |
| Cc1cccc(NS(=O)(=O)c2ccc(C(N)=O)cc2)c1 [Compound A-18, 4-(N-(m-tolyl)sulfamoyl)benzamide] | C (C is inhibition from 10% to 20%) |
| O=S(=O)(Nc1cc(-c2cccnc2)n[nH]1)c1ccc(-c2ccccc2)cc1 [Compound A-14, N-(3-(pyridin-3-yl)-1H-pyrazol-5-yl)-[1,1′-biphenyl]-4-sulfonamide] | D (D is inhibition of 0% to 10%) |
| CCCc1ccc(S(=O)(=O)Nc2ccc(N3CCCS3(=O)=O)cc2)cc1 [Compound A-30, N-(4-(1,1-dioxidoisothiazolidin-2-yl)phenyl)-4-propylbenzenesulfonamide] | C (C is inhibition from 10% to 20%) |
| CCCc1ccc(S(=O)(=O)Nc2ccc(O)c(C(=O)O)c2)cc1 [Compound A-26, 2-hydroxy-5-((4-propylphenyl)sulfonamido) benzoic acid] | B (B is inhibition from 20% to 30%) |
| O=S(=O)(c1ccc(-c2ccccc2)cc1)N1CCN(C2CCOCC2)CC1 [Compound A-11, 1-([1,1′-biphenyl]-4-ylsulfonyl)-4-(tetrahydro-2H-pyran-4-yl)piperazine] | D (D is inhibition of 0% to 10%) |
